Assay results taken from patent publication US9090657B2, “Compound and methods for its production” (NEUROVIVE PHARMACEUTICAL AB, priority 2011, dated 2015).
Where two headings read alike, the source gives them in different places.

Tests used:
[1] = system: HCV genotype 1b I389luc-ubi-neo/NS3-3'/5.1 replicon in Huh5.2 cells; experiment: HCV genotype 1b replicon assay, antiviral effect (luciferase); assay type: cell-based, Hepatitis C virus; details: for EC50: Hepatitis C virus, Huh-5-2, 72 h; for Selectivity index (CC50/EC50): Huh5.2 replicon assay
Protocol: (§1) Dilution series are prepared; each dilution series is performed in at least duplicate.
For the evaluation of antiviral effects, assay medium is aspirated and the cell monolayers are washed with PBS. The wash buffer is aspirated, 25 μL of Glo Lysis Buffer (Cat. No. E2661, Promega) is added after which lysis is allowed to proceed for 5 min at room temperature. Subsequently, 50 μL of Luciferase Assay System (Cat. No. E1501, Promega) is added and the luciferase luminescence signal is quantified immediately (1000 ms integration time/well, Safire^2, Tecan). Relative luminescence units are converted to percentage of untreated controls.
(§2) The selectivity index (SI), indicative of the therapeutic window of the compound, is calculated as CC50/EC50.
(§3) Compounds were analysed in the genotype 1b replicon assay using Huh5.2 cells as described in the General Methods.

[2] = Anti-metabolic effect (MTS) in replicon cells; details: human
Protocol: as §1, §2, §3

[3] = Mouse in vivo oral and iv PK; details: male, CD1 mice, whole blood; for clearance: iv at 1 mg/kg; for AUC(0-t): read-out: po AUClast
Protocol: For sanglifehrin analogues, whole blood is analysed. Compounds are formulated in 5% ethanol/5% cremophor EL/90% saline for both p.o. and i.v. administration. Groups of 3 male CD1 mice are dosed with either 1 mg/kg i.v. or 5 or 10 mg/kg p.o. Blood samples (40 μL) are taken via saphenous vein, pre-dose and at 0.25, 0.5, 2, 8, and 24 hours, and diluted with an equal amount of dH20 and put on dry ice immediately. Samples are stored at −70° C. until analysis. The concentration of the compound of the invention or parent compound in the sample is determined via LCMS as follows: 20 μL of blood:H2O (1:1, v/v)/PK sample is added with 20 μL Internal standard (hydroxyl macrocycle, 6) at 100 ng/mL, 20 μL working solution/MeOH and 150 μL of ACN, vortexed for 1 minute at 1500 rpm, and centrifuged at 12000 rpm for 5 min. The supernatant is then injected into LC-MS/MS. The time-course of blood concentrations is plotted and used to derive area under the whole blood concentration-time curve (AUC—which is directly proportional to the total amount of unchanged drug that reaches the systemic circulation). These values are used to generate PK parameters where possible.
To assess the pharmacokinetics of the compounds in an in vivo setting, compounds were dosed po at 10 or 5 mg/kg and iv at 1 mg/kg to groups of CD1 mice. Pharmacokinetic analysis was carried out as described in the general methods. The PK parameters are shown below.

[4] = system: HIV; experiment: microbe, parasite or virus in culture; assay type: cell-based; details: Human immunodeficiency virus 1, HeLa, read-out: HeLa cells EC50
Protocol: Briefly, human PBMCs were purified from fresh blood by banding on Ficoll-Hypaque (30 min, 800 g, 25° C.). Primary human CD4+ T cells were purified from PBMCs by positive selection with anti-CD4 Dynabeads and subsequent release using Detachabead. […] Three days after stimulation, cells were split 1:2 in medium containing IL-2 (200 units/ml final concentration). Cultures were then split 1:2 every 2 days in IL-2 medium and infected with HIV at 7 days after stimulation. […] To obtain monocyte-derived macrophages, cells were allowed to adhere to plastic and cultured for 6 days to allow differentiation.
CD4+ HeLa cells, Jurkat cells, activated CD4+ peripheral blood T-lymphocytes and macrophages (500,000 cells/100 μL) were incubated with pNL4.3-GFP (X4 virus) or pNL4.3-BaL-GFP (R5 virus) (100 ng of p24) in the presence of increasing concentrations of test article, Forty-eight hours later, infection was scored by analyzing the percentage of GFP-positive cells by FACS and EC50 calculated.
Compounds were analysed in an HIV antiviral assay using HeLa cells as described in the General Methods.

[5] = biological target: CypA (Homo sapiens (Human), UniProt P62937); experiment: biochemical
Sequence of CypA (P62937 whole entry): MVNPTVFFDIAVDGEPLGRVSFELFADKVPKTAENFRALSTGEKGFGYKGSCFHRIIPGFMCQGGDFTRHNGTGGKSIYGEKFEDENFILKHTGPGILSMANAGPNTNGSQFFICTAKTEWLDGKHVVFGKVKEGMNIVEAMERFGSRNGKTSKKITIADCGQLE
Protocol: An alternative methodology for analysing interaction with cyclophilins is described as follows: The PPlase activity of recombinant CypA or D, produced by thrombin cleavage of GST-CypA or D, was determined by following the rate of hydrolysis of N-succinyl-Ala-Ala-Pro-Phe-p-nitroanilide by chymotrypsin. Chymotrypsin only hydrolyzes the trans form of the peptide, and hydrolysis of the cis form, the concentration of which is maximized by using a stock dissolved in trifluoroethanol containing 470 mM LiCl, is limited by the rate of cis-trans isomerization. CypA or D was equilibrated for 1 h at 5° C. with selected test article using a drug concentration range from 0.1 to 20 nM. The reaction was started by addition of the peptide, and the change in absorbance was monitored spectrophotometrically at 10 data points per second. The blank rates of hydrolysis (in the absence of CypA or D) were subtracted from the rates in the presence of CypA or D. The initial rates of the enzymatic reaction were analyzed by first-order regression analysis of the time course of the change in absorbance.
To assess the direct inhibition of CypA Peptidyl Prolyl cis-trans Isomerase (PPlase) activity, a method was used as described in the general methods.

[6] = biological target: OATP1B1 (Homo sapiens (Human), UniProt Q9Y6L6); experiment: Uptake transporter inhibition, OATP1B1; assay type: cell-based; details: CHO cells, probe substrate E3S
Protocol: (§4) To assess the inhibition of the […] and OAT1B3 uptake transporters, an in vitro uptake transporter assay from Solvo Biotechnology Inc. was used. […] Parental cell line CHO-K was used as negative control. […] Before experiments the medium was aspirated by vacuum suction, cells were washed with 2×100 μl of Krebs-Henseleit buffer pH 7.3 (prepared from Sigma chemicals, Sigma-Aldrich, St Louis, Mo.). Uptake experiments were carried out at 37° C. in 50 μl of Krebs-Henseleit buffer (pH 7.3) containing the probe substrate and the TA or solvent, respectively. […] The probe substrate for the OATP1B1 assay was E3S (0.1 μM) and for the OATP1B3 assay was Fluo-3 (10 μM). The translocated amount of probe substrate was determined for each well in cpm. Relative activities were calculated from the equation: Activity%=(A−B)/(C−D)×100

[7] = biological target: OATP1B3 (Homo sapiens (Human), UniProt Q9NPD5); experiment: Uptake transporter inhibition, OATP1B3; assay type: cell-based; details: CHO cells, probe substrate Fluo-3
Sequence of OATP1B3 (Q9NPD5 whole entry): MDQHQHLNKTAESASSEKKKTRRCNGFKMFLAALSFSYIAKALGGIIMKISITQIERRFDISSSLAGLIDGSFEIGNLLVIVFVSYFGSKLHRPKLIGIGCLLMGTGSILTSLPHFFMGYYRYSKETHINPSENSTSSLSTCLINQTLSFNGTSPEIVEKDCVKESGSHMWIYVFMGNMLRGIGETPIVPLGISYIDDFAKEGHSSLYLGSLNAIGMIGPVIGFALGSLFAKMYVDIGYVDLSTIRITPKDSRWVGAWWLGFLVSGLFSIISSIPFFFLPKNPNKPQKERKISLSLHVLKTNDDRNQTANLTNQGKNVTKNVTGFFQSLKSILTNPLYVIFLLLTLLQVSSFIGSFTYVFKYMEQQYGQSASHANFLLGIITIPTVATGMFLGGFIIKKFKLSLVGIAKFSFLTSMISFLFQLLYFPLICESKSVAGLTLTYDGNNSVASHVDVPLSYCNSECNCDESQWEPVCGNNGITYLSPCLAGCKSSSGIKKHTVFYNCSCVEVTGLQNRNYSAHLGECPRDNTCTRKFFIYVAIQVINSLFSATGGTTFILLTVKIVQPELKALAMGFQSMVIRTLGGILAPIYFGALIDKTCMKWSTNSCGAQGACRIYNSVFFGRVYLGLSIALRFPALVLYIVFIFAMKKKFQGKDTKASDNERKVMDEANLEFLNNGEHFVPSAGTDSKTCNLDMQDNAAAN
Protocol: as §4

[8] = biological target: MRP2 (Homo sapiens (Human), UniProt Q92887); experiment: Vesicular efflux transporter inhibition, MRP2
Sequence of MRP2 (Q92887 whole entry): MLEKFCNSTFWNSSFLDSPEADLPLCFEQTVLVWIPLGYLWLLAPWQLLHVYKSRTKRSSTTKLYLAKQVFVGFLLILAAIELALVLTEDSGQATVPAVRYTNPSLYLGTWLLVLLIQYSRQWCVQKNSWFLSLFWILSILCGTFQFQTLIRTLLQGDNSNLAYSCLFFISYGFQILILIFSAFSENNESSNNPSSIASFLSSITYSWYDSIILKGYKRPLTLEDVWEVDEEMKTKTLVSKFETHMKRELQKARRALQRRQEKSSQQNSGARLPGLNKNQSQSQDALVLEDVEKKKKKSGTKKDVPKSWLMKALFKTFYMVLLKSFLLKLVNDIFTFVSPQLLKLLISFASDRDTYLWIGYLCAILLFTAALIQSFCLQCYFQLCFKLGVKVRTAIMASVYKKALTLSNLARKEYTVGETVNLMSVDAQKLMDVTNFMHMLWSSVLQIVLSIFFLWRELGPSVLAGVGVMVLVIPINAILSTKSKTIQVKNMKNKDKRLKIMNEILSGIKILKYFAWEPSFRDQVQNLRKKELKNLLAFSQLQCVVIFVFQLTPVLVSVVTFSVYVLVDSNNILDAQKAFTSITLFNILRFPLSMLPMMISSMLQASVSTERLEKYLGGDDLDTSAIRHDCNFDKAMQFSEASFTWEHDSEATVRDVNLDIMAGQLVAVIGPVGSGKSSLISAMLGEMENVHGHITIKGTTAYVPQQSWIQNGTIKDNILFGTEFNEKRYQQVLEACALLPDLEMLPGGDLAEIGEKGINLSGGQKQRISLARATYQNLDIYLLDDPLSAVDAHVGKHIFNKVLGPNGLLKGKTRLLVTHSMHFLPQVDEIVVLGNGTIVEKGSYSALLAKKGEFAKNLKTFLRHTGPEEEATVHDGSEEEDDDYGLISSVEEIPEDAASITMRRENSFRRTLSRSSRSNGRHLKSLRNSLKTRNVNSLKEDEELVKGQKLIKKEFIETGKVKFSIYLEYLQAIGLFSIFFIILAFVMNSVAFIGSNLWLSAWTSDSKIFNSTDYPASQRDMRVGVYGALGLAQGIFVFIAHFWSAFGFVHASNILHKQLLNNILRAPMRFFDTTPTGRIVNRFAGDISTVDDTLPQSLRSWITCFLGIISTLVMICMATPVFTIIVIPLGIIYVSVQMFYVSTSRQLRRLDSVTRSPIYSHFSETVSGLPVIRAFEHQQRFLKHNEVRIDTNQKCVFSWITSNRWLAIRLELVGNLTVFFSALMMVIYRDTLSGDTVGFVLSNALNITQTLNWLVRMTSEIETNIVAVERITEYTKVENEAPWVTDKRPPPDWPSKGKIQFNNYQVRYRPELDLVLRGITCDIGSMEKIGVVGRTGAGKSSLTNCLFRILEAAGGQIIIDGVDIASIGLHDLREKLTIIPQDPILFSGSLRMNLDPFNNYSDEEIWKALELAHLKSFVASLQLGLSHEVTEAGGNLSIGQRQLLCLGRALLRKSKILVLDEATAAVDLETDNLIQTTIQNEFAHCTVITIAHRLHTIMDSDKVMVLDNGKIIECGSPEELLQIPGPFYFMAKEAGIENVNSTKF
Protocol: (§5) To assess the inhibition of the MRP2, MRP3 and BSEP efflux transporters, an in vitro vesicular transporter assay from Solvo Biotechnology Inc. was used. […] In the case of MRP2 and MRP3 transporters reactions were carried out in the presence of 2 mM glutathione. Reaction mixtures were preincubated for ten minutes at 37° C. Reactions were started by the addition of 25 μl of 12 mM MgATP (4 mM final concentration in assay) or assay buffer for background controls. Reactions were stopped by adding 200 μl of ice-cold washing buffer and immediately followed by filtration on glass fiber filters in a 96-well format (filter plate). Scintillation buffer was added to the washed and dried filter plate and scintillation was counted subsequently. Probe substrates were taurocholate (2 μM) for BSEP vesicles and E217βG (1 μM) for MRP2 and MRP3 vesicles. For all wells the translocated amount of the probe substrate was determined in cpm units. Relative activities were calculated with the following equation:
(§6) Activity %=(A−B)/(C−D)×100 Where A=translocated amount of substrate in the presence of TA and ATP, B=translocated amount of substrate in the presence of TA, C=translocated amount of substrate in the presence of solvent and ATP and D=translocated amount of substrate in the presence of solvent. […]

[9] = biological target: MRP3 (Homo sapiens (Human), UniProt O15438); experiment: Vesicular efflux transporter inhibition, MRP3
Protocol: as §5, §6

[10] = biological target: P-glycoprotein (Pgp/MDR1) (Homo sapiens (Human), UniProt P08183); experiment: Inhibition of Pgp transporter using MDR1-MDCK cells; assay type: cell-based; details: loperamide substrate
Sequence of P-glycoprotein (Pgp/MDR1) (P08183 whole entry): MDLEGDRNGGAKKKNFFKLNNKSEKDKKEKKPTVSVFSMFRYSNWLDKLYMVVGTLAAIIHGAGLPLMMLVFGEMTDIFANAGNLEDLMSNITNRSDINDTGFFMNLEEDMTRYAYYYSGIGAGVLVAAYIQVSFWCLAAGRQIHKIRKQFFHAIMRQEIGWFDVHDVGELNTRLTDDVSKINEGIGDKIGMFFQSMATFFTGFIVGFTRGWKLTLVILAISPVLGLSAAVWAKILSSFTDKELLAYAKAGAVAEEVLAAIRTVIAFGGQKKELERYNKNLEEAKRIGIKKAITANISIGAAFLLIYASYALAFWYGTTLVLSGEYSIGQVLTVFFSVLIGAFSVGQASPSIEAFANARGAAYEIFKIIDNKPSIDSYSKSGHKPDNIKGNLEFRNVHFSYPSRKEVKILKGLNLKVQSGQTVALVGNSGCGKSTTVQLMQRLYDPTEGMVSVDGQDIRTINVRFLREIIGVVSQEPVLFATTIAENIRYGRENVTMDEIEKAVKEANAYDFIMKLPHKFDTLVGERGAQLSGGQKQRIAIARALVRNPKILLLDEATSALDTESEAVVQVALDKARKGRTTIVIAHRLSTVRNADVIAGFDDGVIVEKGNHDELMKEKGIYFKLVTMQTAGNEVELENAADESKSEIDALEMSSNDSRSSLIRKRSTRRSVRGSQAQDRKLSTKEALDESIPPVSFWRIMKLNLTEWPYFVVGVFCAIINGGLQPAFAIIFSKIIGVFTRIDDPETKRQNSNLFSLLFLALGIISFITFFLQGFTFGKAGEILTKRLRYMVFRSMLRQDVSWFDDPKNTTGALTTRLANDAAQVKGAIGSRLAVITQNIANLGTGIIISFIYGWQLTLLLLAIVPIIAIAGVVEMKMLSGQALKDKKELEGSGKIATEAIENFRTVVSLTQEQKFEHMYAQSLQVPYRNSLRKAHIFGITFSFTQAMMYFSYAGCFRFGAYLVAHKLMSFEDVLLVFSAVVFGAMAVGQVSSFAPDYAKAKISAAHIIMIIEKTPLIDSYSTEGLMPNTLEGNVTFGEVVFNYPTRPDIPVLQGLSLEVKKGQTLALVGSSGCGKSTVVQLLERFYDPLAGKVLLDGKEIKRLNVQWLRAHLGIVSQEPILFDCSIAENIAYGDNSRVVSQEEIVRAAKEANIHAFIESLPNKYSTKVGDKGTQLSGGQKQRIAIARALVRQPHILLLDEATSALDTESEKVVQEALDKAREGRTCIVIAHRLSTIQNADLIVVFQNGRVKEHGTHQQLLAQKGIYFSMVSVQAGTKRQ
Protocol: To assess the inhibition of the P-glycoprotein (Pgp/MDR1) transporter, an in vitro ATPase assay from Cyprotex was used. MDR1—MDCK cells obtained from the NIH (Rockville, Md., USA) were used. Following culture, the monolayers were prepared by rinsing both basolateral and apical surfaces twice with buffer at pH 7.4 and 37° C. […] For the apical to basolateral study (A-B), buffer at pH 7.4 was removed from the apical compartment and replaced with loperamide dosing solutions before being placed in the ‘companion’ plates. The solutions were prepared by diluting loperamide in DMSO with buffer to give a final loperamide concentration of 5 μM (final DMSO concentration adjusted to 1%). The fluorescent integrity marker Lucifer yellow was also included in the dosing solution. The experiment was performed in the presence and absence of the test compound (applied to both the apical and basolateral compartments). For basolateral to apical (B-A) study, the P-glycoprotein substrate, loperamide (final concentration=5 μM) was placed in the basolateral compartment. The experiment was performed in the presence and absence of the test compound (applied to the apical and basolateral compartments). […] The test compound was assessed at 0.1, 0.3, 1, 3, 10, 30 and 50 μM. […] After analysis, an IC50 was calculated (i.e., inhibitor concentration (test drug) achieving half maximal inhibition effect).

[11] = biological target: Bile Salt Export Pump (BSEP) (Homo sapiens (Human), UniProt O95342); experiment: Vesicular efflux transporter inhibition, BSEP; assay type: biochemical; details: membrane vesicles, probe taurocholate
Sequence of Bile Salt Export Pump (BSEP) (O95342 whole entry): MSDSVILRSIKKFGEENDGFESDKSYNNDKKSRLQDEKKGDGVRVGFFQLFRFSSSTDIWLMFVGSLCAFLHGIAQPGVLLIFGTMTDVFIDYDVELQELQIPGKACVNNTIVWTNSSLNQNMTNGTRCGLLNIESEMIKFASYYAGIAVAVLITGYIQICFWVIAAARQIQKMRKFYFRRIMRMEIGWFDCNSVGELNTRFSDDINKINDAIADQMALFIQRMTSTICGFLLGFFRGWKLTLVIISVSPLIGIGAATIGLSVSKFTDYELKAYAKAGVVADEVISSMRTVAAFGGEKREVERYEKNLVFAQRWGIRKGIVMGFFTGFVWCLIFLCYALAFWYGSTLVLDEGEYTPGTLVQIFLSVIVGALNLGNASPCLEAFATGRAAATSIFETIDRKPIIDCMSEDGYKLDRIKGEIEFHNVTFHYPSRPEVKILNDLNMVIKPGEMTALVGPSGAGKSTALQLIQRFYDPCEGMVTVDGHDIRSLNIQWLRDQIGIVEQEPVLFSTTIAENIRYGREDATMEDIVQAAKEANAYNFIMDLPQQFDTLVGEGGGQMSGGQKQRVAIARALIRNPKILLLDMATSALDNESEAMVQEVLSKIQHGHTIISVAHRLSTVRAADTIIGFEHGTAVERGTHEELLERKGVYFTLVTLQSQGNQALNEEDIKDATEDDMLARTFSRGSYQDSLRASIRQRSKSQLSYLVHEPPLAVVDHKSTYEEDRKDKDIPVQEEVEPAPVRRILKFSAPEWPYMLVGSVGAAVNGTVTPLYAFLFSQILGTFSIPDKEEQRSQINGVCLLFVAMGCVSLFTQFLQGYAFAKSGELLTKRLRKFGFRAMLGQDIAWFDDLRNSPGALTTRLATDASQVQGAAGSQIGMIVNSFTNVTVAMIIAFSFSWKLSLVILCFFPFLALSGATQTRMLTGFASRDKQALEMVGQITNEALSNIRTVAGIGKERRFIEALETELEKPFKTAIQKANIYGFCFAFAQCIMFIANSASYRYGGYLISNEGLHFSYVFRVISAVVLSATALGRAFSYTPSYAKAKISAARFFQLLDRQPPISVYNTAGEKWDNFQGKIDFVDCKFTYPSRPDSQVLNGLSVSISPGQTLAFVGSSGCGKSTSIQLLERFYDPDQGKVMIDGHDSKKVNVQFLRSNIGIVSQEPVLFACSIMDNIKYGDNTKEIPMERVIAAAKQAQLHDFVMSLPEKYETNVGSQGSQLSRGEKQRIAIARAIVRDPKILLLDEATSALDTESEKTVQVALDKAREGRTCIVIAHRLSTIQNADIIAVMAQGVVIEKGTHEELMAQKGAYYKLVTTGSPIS
Protocol: Relative activities were calculated with the following equation: […]

[12] = system: Huh5.2 cells; experiment: Anti-metabolic effect (MTS) in replicon cells; details: Huh5.2 cells, MTS, 72 hours
Protocol: as §1, §2, §3

[13] = system: HBV; details: Ptak et al. 2008; read-out: IC50 against HBV; cited from earlier work

CC(=O)CC[C@H]1C(=O)N[C@@H](C(C)C)C(=O)N[C@@H](Cc2cccc(O)c2)C(=O)N2CCC[C@H](N2)C(=O)O[C@H](/C(C)=C/CO)C/C=C/C=C/[C@H](O)[C@H](C)[C@H]1O [Hydroxymacrocycle, 6]
EC50 [1]: 8400 nM
Selectivity index (CC50/EC50) [1]: 9.9
CC50 at 72 h [2]: 83600 nM

CC[C@H]1C[C@H](C)[C@@]2(NC1=O)O[C@@H](C[C@H](O)[C@@H](C)CC/C=C/C=C(\C)[C@@H]1C/C=C/C=C/[C@H](O)[C@H](C)[C@@H](O)[C@@H](CCC(C)=O)C(=O)N[C@@H](C(C)C)C(=O)N[C@@H](Cc3cccc(O)c3)C(=O)N3CCC[C@H](N3)C(=O)O1)[C@H](C)[C@H](O)[C@@H]2C [Sanglifehrin A, 5, Sanglifehrin A]
EC50 [1]: 318 nM
CC50 at 72 h [2]: 9100 nM
clearance [3]: 0.9 mL/min/kg
AUC(0-t) ([3]; po 10 mg/kg): 2330 ng·h/mL

CC(=O)CC[C@H]1C(=O)N[C@@H](C(C)C)C(=O)N[C@@H](Cc2cc(O)cc(F)c2)C(=O)N2CCCC(N2)C(=O)O[C@H](/C(C)=C/C=C/C(=O)N2CCCCO2)C/C=C/C=C/[C@H](O)[C@H](C)[C@H]1O (stereo partly drawn) [Compound 24]
EC50 [1]: 33 nM
Selectivity index (CC50/EC50) [1]: >3030
CC50 at 72 h [2]: > 100000 nM
EC50 [4]: 130 nM
clearance [3]: 0.283 mL/min/kg
AUC(0-t) ([3]; po 5 mg/kg): 8220 ng·h/mL
IC50 [5]: 0.31 nM
IC50 [6]: 4300 nM
IC50 [7]: 1800 nM
IC50 [8]: > 50000 nM
IC50 [9]: > 50000 nM
IC50 [10]: > 50000 nM
IC50 [11]: 12300 nM

C/C=C/C[C@@H](C)[C@@H](O)[C@H]1C(=O)N[C@@H](CC)C(=O)N(C)[C@H](C)C(=O)N(CC)[C@@H](C(C)C)C(=O)N[C@@H](C(C)C)C(=O)N(C)[C@@H](CC(C)C)C(=O)N[C@@H](C)C(=O)N[C@H](C)C(=O)N(C)[C@@H](CC(C)C)C(=O)N(C)[C@@H](CC(C)C)C(=O)N(C)[C@@H](C(C)C)C(=O)N1C [DEBIO-025, 2, DEBIO-025]
EC50 [1]: 96 nM
Selectivity index (CC50/EC50) [1]: 111
CC50 [12]: 11200 nM
EC50 [4]: 1500 nM
IC50 ([5]; read-out: CypA PPIase IC50, recombinant CypA): 0.8 nM
IC50 [6]: 450 nM
IC50 [7]: 190 nM
IC50 [8]: 16000 nM
IC50 [9]: > 50000 nM
IC50 [10]: 720 nM
IC50 [11]: 180 nM
IC50 [13]: 4100 nM

Nc1nc(=O)n([C@@H]2CS[C@H](CO)O2)cc1F [Emtricitabine]
EC50 [4]: 400 nM
